Reference: ChEMBL document CHEMBL1127104, “L-708,474: The C5-cyclohexyl analogue of L-365,260, a selective high affinity ligand for the CCKB/gastrin receptor” (Bioorg Med Chem Lett, 1993)

The molecules below were run against T1, Cholecystokinin receptor type A (Rattus norvegicus, UniProt P30551) (assay: In vitro test for inhibition of [125I]CCK binding to Cholecystokinin type A receptor from rat pancreatic tissues was determined).
T1 sequence (P30551 whole entry): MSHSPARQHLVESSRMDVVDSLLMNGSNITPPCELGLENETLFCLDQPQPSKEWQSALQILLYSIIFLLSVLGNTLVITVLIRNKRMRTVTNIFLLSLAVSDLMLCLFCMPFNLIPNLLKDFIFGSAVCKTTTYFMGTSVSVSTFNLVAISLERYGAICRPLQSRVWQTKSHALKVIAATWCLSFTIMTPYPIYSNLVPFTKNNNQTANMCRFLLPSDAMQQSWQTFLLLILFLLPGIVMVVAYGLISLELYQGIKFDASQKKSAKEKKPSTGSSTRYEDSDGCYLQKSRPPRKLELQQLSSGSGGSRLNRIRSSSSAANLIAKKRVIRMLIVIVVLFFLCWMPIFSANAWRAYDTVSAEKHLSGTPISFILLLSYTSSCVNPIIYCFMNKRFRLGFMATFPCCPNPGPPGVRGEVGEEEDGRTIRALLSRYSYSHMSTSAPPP
`Cc1cccc(NC(=O)NC2N=C(C3CCC3)c3ccccc3N(C)C2=O)c1` (stereo not drawn) gave an IC50 of 402 nM.
`Cc1cccc(NC(=O)NC2N=C(C3CCCC3)c3ccccc3N(C)C2=O)c1` (stereo not drawn) gave an IC50 of 27.1 nM.
`Cc1cccc(NC(=O)N[C@@H]2N=C(c3ccccc3)c3ccccc3N(C)C2=O)c1` [L-365260] was tested, and the IC50 was 736 nM.
